# Laboratory results taken from patent US20200008426A1, “ACTIVE COMPOUND COMBINATIONS” (BAYER AKTIENGESELLSCHAFT, priority 2017, published 2020).
# Several values for one entry are separate records, joined by “and”; a condition that tells them apart may be missing. Identical values can stand only once. Like-named read-outs stand apart in the source and are kept apart here.
# Columns and labels:
# Alternaria solani = experiment: In vivo preventive test on Alternaria (tomatoes)
# Method: The plants are then placed in an incubation cabinet at approximately 20° C. and a relative atmospheric humidity of 100%.
# (§1) The test is evaluated 3 days after the inoculation.
# Colletotrichum coccodes = experiment: In vivo preventive test on Colletotrichum (tomatoes); conditions: 3 days after inoculation
# Method: as §1
# Phakopsora pachyrhizi = experiment: In vivo preventive test on Phakopsora (soybeans); conditions: 7 days after inoculation
# Alternaria alternata = experiment: In vitro-Test with Alternaria alternata; type: cell-based
# Septoria tritici = experiment: In vivo preventive Septoria tritici test (wheat); conditions: 21 days after inoculation
# Method: After the spray coating has been dried, the plants are sprayed with a spore suspension of Septoria tritici.
# The test is evaluated 21 days after the inoculation.
# Pyricularia oryzae = type: cell-based
# Puccinia triticina = experiment: In vivo preventive Puccinia triticina test (wheat); conditions: 8 days after inoculation
# Method: After the spray coating has been dried, the plants are sprayed with a spore suspension of Puccinia triticina.
# (§2) The test is evaluated 8 days after the inoculation.
# Venturia inaequalis = experiment: In vivo preventive test on Venturia (apples); conditions: 10 days after inoculation
# Method: The test is evaluated 10 days after the inoculation.
# Sphaerotheca fuliginea = experiment: In vivo preventive test on Sphaerotheca (cucumbers); conditions: Table D1, 7 days after inoculation
# [1] = system: fish (Danio rerio) embryos; experiment: In vivo ecotoxicity screening test on fish (Danio rerio); conditions: active compound alone; fish embryos, 96 h, 28.5° C.
# Method: with ECxi the Effect Concentration (EC) of each chemical i (in ppm) causing x % effect on the ecotoxicity test endpoint.
# For each compound combination, the predicted ECx value is calculated. It is then compared to an experimentally measured value. The ratio of predicted versus measured effect for the combination (thereafter called the Model Deviation Ratio or MDR) is then calculated.
# The environmental effect of the compound combinations was measured experimentally in laboratory ecotoxicity screening studies with fish (Danio rerio). […] Mortality was recorded after 96 h for each tested concentration and a reference control. […] Then, the MDR values were calculated.
# • Solvent: 0.5% by weight dimethyl sulfoxide
# This concentrate is then diluted with water to the desired a.i. concentration, leading to a maximal solvent concentration of 0.5% by weight. The compounds alone and the combinations were tested for five increasing concentrations between 0.01 and 1000 ppm a.i., (e.g. 0.1, 1.0, 10 and 100 ppm a.i). For the combinations, compounds A and B were mixed in a weight ratio of 5:1 to 1:5 and five increasing concentrations were tested for each ratio.
# Pyrenophora teres = experiment: In vitro-Test with Pyrenophora teres; type: cell-based; conditions: 100 ppm
# Leptosphaeria nodorum = experiment: In vivo preventive Leptosphaeria nodorum test (wheat); conditions: Table G1, 8 days after inoculation
# Method: After the spray coating has been dried, the plants are sprayed with a spore suspension of Leptosphaeria nodorum.
# as §2
# [2] = Alternaria solani, 72 h, read-out: Efficacy in % found
compound,measurement,setting,value
"CCCN(CC)CC1COC2(CCC(C(C)(C)C)CC2)O1 (centres unmarked) [1.020 spiroxamine, spiroxamine]",Efficacy in % found,"Alternaria solani; Table A1, 25 ppm a.i., 3 days after inoculation",13%
same,Efficacy in % found,"Alternaria solani; Table A1, 50 ppm a.i., 3 days after inoculation",38%
same,Efficacy in % found,"Alternaria solani; Table A1, 100 ppm a.i., 3 days after inoculation",49%
same,Efficacy in % found,"Colletotrichum coccodes; Table B1, 25 ppm a.i.",33%
same,Efficacy in % found,"Colletotrichum coccodes; Table B1, 50 ppm a.i.",44%
same,Efficacy in % found,"Colletotrichum coccodes; Table B1, 100 ppm a.i.",49%
same,Efficacy in % found,"Phakopsora pachyrhizi; Table C1, 25 ppm a.i.",23%
same,Efficacy in % found,"Phakopsora pachyrhizi; Table C1, 50 ppm a.i.",50%
same,Efficacy in % found,"Phakopsora pachyrhizi; Table C1, 100 ppm a.i.",75%
"O=C(Nc1ccccc1)N(Cc1ccc(Cl)cc1)C1CCCC1 [4.005 pencycuron, pencycuron]",pest or weed control at 25 ppm,"Alternaria solani; Alternaria solani, 72 h, Table A1, 25 ppm a.i., 3 days after inoculation, read-out: Efficacy in % found",5%
same,pest or weed control at 50 ppm,"Alternaria solani; Alternaria solani, 72 h, Table A1, 50 ppm a.i., 3 days after inoculation, read-out: Efficacy in % found",21%
same,pest or weed control at 100 ppm,"Alternaria solani; Alternaria solani, 72 h, Table A1, 100 ppm a.i., 3 days after inoculation, read-out: Efficacy in % found",33%
same,Efficacy in % found,"Colletotrichum coccodes; Table B1, 25 ppm a.i.",33%
same,Efficacy in % found,"Colletotrichum coccodes; Table B1, 50 ppm a.i.",33%
same,Efficacy in % found,"Colletotrichum coccodes; Table B1, 100 ppm a.i.",33%
"N#Cc1c(Cl)c(Cl)c(Cl)c(C#N)c1Cl [5.004 chlorothalonil, chlorothalonil]",pest or weed control at 25 ppm,"Alternaria solani; Alternaria solani, 72 h, 25 ppm a.i., tomatoes, 3 days after inoculation, read-out: Efficacy in % found",13%
same,pest or weed control at 50 ppm,"Alternaria solani; Alternaria solani, 72 h, 50 ppm a.i., tomatoes, 3 days after inoculation, read-out: Efficacy in % found",33%
same,Efficacy in % found,"Colletotrichum coccodes; Table B2, 25 ppm a.i.",8%
same,Efficacy in % found,"Colletotrichum coccodes; Table B2, 50 ppm a.i.",8%
"CC(C)(C)C(O)(CCc1ccc(Cl)cc1)Cn1cncn1 (centres unmarked) [Example 1.021, tebuconazole]",Efficacy %,Alternaria alternata; 0.04 ppm,19%
same,Efficacy %,Alternaria alternata; 0.2 ppm,24%
same,Efficacy %,Alternaria alternata; 1 ppm,36%
same,Efficacy in % found,Septoria tritici; 25 ppm a.i.,0%
same,Efficacy in % found,Septoria tritici; 50 ppm a.i.,0%
same,Efficacy in % found,Septoria tritici; 100 ppm a.i.,0%
same,Efficacy %,Pyricularia oryzae; 0.2 ppm,87%
same,Efficacy %,Pyricularia oryzae; 1 ppm,87% and 89%
same,Efficacy in % found,Puccinia triticina; 25 ppm a.i.,22%
same,Efficacy in % found,Puccinia triticina; 50 ppm a.i.,78%
same,Efficacy in % found,Puccinia triticina; 100 ppm a.i.,89%
same,Efficacy in % found,"Venturia inaequalis; Table E1, 2.5 ppm a.i.",4%
same,Efficacy in % found,"Venturia inaequalis; Table E1, 5 ppm a.i.",34%
same,Efficacy in % found,"Venturia inaequalis; Table E1, 10 ppm a.i.",44%
same,Efficacy in % found,Sphaerotheca fuliginea; 2.5 ppm a.i.,37%
same,Efficacy in % found,Sphaerotheca fuliginea; 5 ppm a.i.,69%
same,Efficacy in % found,Sphaerotheca fuliginea; 10 ppm a.i.,83%
same,Ecotoxicity LC50-96 h found,[1],19.7 ppm a.i.
"Cc1nn(C)c(F)c1C(=O)Nc1ccccc1C(C)CC(C)C (centres unmarked) [Example 2.017, penflufen]",Efficacy in % found,Septoria tritici; 20 ppm a.i.,29%
same,Efficacy in % found,Septoria tritici; 40 ppm a.i.,0%
same,Efficacy in % found,Septoria tritici; 80 ppm a.i.,0%
same,Efficacy %,Pyricularia oryzae; 1 ppm,44%
same,Efficacy %,Pyricularia oryzae; 5 ppm,91%
same,Efficacy in % found,Puccinia triticina; 20 ppm a.i.,56%
same,Efficacy in % found,Puccinia triticina; 40 ppm a.i.,89%
same,Efficacy in % found,Puccinia triticina; 80 ppm a.i.,100%
same,Ecotoxicity LC50-96 h found,[1],0.62 ppm a.i.
"COc1ccnc(C(=O)N[C@H]2COC(=O)[C@H](Cc3ccccc3)[C@@H](OC(=O)C(C)C)[C@H](C)OC2=O)c1OCOC(=O)C(C)C [Example 3.025, (3S,6S,7R,8R)-8-benzyl-3-[({3-[(isobutyryloxy)methoxy]-4-methoxypyridin-2-yl}carbonyl)amino]-6-methyl-4,9-dioxo-1,5-dioxonan-7-yl 2-methylpropanoate]",pest or weed control at 37.5 ppm,"Septoria tritici; Zymoseptoria tritici, 504 h, read-out: Efficacy in % found, 37.5 ppm a.i.",13%
same,pest or weed control at 150 ppm,"Septoria tritici; Zymoseptoria tritici, 504 h, read-out: Efficacy in % found, 150 ppm a.i.",63%
same,Efficacy %,Pyricularia oryzae; 0.8 ppm,91% and 67%
same,Efficacy %,Pyricularia oryzae; 4 ppm,84% and 85%
same,Efficacy %,Pyricularia oryzae; 20 ppm,100% and 72%
same,pest or weed control at 5 ppm,Alternaria solani; [2],18%
same,pest or weed control at 10 ppm,Alternaria solani; [2],18%
same,pest or weed control at 20 ppm,Alternaria solani; [2],58%
same,pest or weed control at 37.5 ppm,"Puccinia triticina; Puccinia triticina, 192 h, read-out: Efficacy in % found, Table H1, 37.5 ppm a.i.",22%
same,pest or weed control at 75 ppm,"Puccinia triticina; Puccinia triticina, 192 h, read-out: Efficacy in % found, Table H1, 75 ppm a.i.",67%
same,pest or weed control at 150 ppm,"Puccinia triticina; Puccinia triticina, 192 h, read-out: Efficacy in % found, Table H1, 150 ppm a.i.",89%
same,Efficacy %,Pyrenophora teres,10%
same,Efficacy in % found,"Phakopsora pachyrhizi; Table C2, 5 ppm a.i.",23%
same,Efficacy in % found,"Phakopsora pachyrhizi; Table C2, 10 ppm a.i.",40%
same,Efficacy in % found,"Phakopsora pachyrhizi; Table C2, 20 ppm a.i.",63%
same,Ecotoxicity LC50-96 h found,[1],1.87 ppm a.i.
"COCC(=O)N(c1c(C)cccc1C)C(C)C(=O)OC (centres unmarked) [Example 12.003, metalaxyl]",Efficacy in % found,Septoria tritici; 250 ppm a.i.,0%
same,Efficacy in % found,Septoria tritici; 500 ppm a.i.,0%
same,Efficacy in % found,Septoria tritici; 1000 ppm a.i.,0%
same,Efficacy in % found,Puccinia triticina; 1000 ppm a.i.,30% and 44%
same,Efficacy in % found,Leptosphaeria nodorum; 250 ppm a.i.,29%
same,Efficacy in % found,Leptosphaeria nodorum; 500 ppm a.i.,0%
same,Efficacy in % found,Leptosphaeria nodorum; 1000 ppm a.i.,0%
same,Efficacy in % found,"Venturia inaequalis; Table E2, 50 ppm a.i.",11%
same,Efficacy in % found,"Venturia inaequalis; Table E2, 100 ppm a.i.",11%
same,Efficacy in % found,"Venturia inaequalis; Table E2, 200 ppm a.i.",19%
same,Efficacy in % found,"Phakopsora pachyrhizi; Table C3, 50 ppm a.i.",0%
same,Efficacy in % found,"Phakopsora pachyrhizi; Table C3, 100 ppm a.i.",0%
same,Efficacy in % found,"Phakopsora pachyrhizi; Table C3, 200 ppm a.i.",23%
same,Ecotoxicity LC50-96 h found,[1],>200 ppm a.i.
"N#Cc1c[nH]cc1-c1cccc2c1OC(F)(F)O2 [Example 13.001, fludioxonil]",pest or weed control at 20 ppm,"Septoria tritici; Zymoseptoria tritici, 504 h, read-out: Efficacy in % found, 20 ppm a.i.",29%
same,pest or weed control at 40 ppm,"Septoria tritici; Zymoseptoria tritici, 504 h, read-out: Efficacy in % found, 40 ppm a.i.",29%
same,pest or weed control at 80 ppm,"Septoria tritici; Zymoseptoria tritici, 504 h, read-out: Efficacy in % found, 80 ppm a.i.",29%
same,Efficacy %,Pyricularia oryzae; 0.2 ppm,82%
same,Efficacy %,Pyricularia oryzae; 1 ppm,87% and 88%
same,Efficacy %,Pyricularia oryzae; 5 ppm,89% and 79%
same,pest or weed control at 20 ppm,"Puccinia triticina; Puccinia triticina, 192 h, read-out: Efficacy in % found, 20 ppm a.i.",0%
same,pest or weed control at 40 ppm,"Puccinia triticina; Puccinia triticina, 192 h, read-out: Efficacy in % found, 40 ppm a.i.",0%
same,pest or weed control at 80 ppm,"Puccinia triticina; Puccinia triticina, 192 h, read-out: Efficacy in % found, 80 ppm a.i.",0%
same,pest or weed control at 20 ppm,"Puccinia triticina; Puccinia triticina, 192 h, read-out: Efficacy in % found, Table H1, 20 ppm a.i.",0%
same,pest or weed control at 40 ppm,"Puccinia triticina; Puccinia triticina, 192 h, read-out: Efficacy in % found, Table H1, 40 ppm a.i.",0%
same,pest or weed control at 80 ppm,"Puccinia triticina; Puccinia triticina, 192 h, read-out: Efficacy in % found, Table H1, 80 ppm a.i.",22%
same,Efficacy in % found,"Venturia inaequalis; Table E1, 5 ppm a.i.",8%
same,Efficacy in % found,"Venturia inaequalis; Table E1, 10 ppm a.i.",4%
same,Efficacy in % found,"Venturia inaequalis; Table E1, 20 ppm a.i.",4%
same,Ecotoxicity LC50-96 h found,[1],0.89 ppm a.i.
"O=C(Cc1ccccc1)N/C(=N\OCC1CC1)c1c(C(F)(F)F)ccc(F)c1F [Example 15.008, cyflufenamid]",Efficacy in % found,Septoria tritici; 250 ppm a.i.,14%
same,Efficacy in % found,Septoria tritici; 500 ppm a.i.,29%
same,Efficacy in % found,Septoria tritici; 1000 ppm a.i.,29%
same,Efficacy %,Pyricularia oryzae; 4 ppm,17%
same,Efficacy %,Pyricularia oryzae; 20 ppm,91%
same,Efficacy in % found,Puccinia triticina; 250 ppm a.i.,0%
same,Efficacy in % found,Puccinia triticina; 500 ppm a.i.,0%
same,Efficacy in % found,Puccinia triticina; 1000 ppm a.i.,22%
same,Efficacy in % found,Leptosphaeria nodorum; 250 ppm a.i.,0%
same,Efficacy in % found,Leptosphaeria nodorum; 500 ppm a.i.,0%
same,Efficacy in % found,Leptosphaeria nodorum; 1000 ppm a.i.,0%
same,Efficacy in % found,"Venturia inaequalis; Table E2, 5 ppm a.i.",0%
same,Efficacy in % found,"Venturia inaequalis; Table E2, 10 ppm a.i.",0%
same,Efficacy in % found,"Venturia inaequalis; Table E2, 20 ppm a.i.",4%
same,Ecotoxicity LC50-96 h found,[1],5.2 ppm a.i.
mancozeb [5.013 mancozeb],Efficacy in % found,"Alternaria solani; 12.5 ppm a.i., tomatoes, 3 days after inoculation",28%
same,Efficacy in % found,"Alternaria solani; 25 ppm a.i., tomatoes, 3 days after inoculation",33%
same,Efficacy in % found,"Alternaria solani; 50 ppm a.i., tomatoes, 3 days after inoculation",77%
same,Efficacy in % found,"Colletotrichum coccodes; Table B2, 12.5 ppm a.i.",0%
same,Efficacy in % found,"Colletotrichum coccodes; Table B2, 25 ppm a.i.",0%
same,Efficacy in % found,"Colletotrichum coccodes; Table B2, 50 ppm a.i.",0%
